Measured values as given in patent US20260070928A1, “NOVEL CRYSTALLINE FORMS OF (S)-7-OXA-2-AZA-SPIRO[4.5]DECANE-2-CARBOXYLIC ACID [7-(3,6-DIHYDRO-2H-PYRAN-4-YL)-4-METHOXY-THIAZOLO[4,5-C]PYRIDIN-2-YL]-AMIDE AND CO-CRYSTAL FORMS THEREOF” (Domain Therapeutics S.A., priority 2022, published 2026).

Tests used:
[1] = water vapour sorption isotherm (25° C.), DVS intrinsic system; hygroscopicity according to Ph. Eur. 5.11; assay type: physicochemical; conditions: for water uptake levels (water vapour sorption): 25° C.
Text: The amorphous state can be classified as hygroscopic according to Ph. […] The water vapour sorption isotherm was acquired on a DVS intrinsic system from SMS.
Eur. criteria (section 5.11.).
The water vapour sorption isotherm was acquired on a DVS Intrinsic system from SMS.
(§1) The mono fumaric acid co-crystal form A1 is characterised by the following physical properties: • 1 eq. […] The DSC scan of mono fumaric acid co-crystal form A1 was acquired on a Mettler-Toledo DSC1 with a heating rate of 5 K/min, using nitrogen purge gas at 50 mL/min. […] Eur. criteria (section 5.11.). […] The water vapour sorption isotherm was acquired on a DVS intrinsic system from SMS. • The concentration levels of the mono fumaric acid co-crystal form A1 were determined at 37° C. after 15 min and 30 min in non-sink-dissolution experiments.
as §1, with “The hemi” for “The mono”, “form A2” for “form A1”, “• 0.5” for “• 1”, “of the hemi” for “of mono”, “Eur. Criteria” for “Eur. criteria”, “the hemi” for “the mono”

[2] = non-sink dissolution experiments in biorelevant media at 37° C.; assay type: physicochemical; conditions: for Dissolution levels after 15 min / Dissolution levels after 30 min: 37° C., non-sink dissolution; for dissolution behaviour in biorelevant intestinal milieu (FaSSIF) compared to crystalline entities of the free compound: comparison in words
Procedure: as §1
as §1, with “The hemi” for “The mono”, “form A2” for “form A1”, “• 0.5” for “• 1”, “of the hemi” for “of mono”, “Eur. Criteria” for “Eur. criteria”, “the hemi” for “the mono”

[3] = full relative humidity range 0-98% RH

hygroscopicity classification according to Ph. Eur. criteria (section 5.11.) ([1]; 25° C. water vapour sorption) | water uptake levels (water vapour sorption) [1, 3] | Dissolution levels after 15 min ([2]; FaSSIF [pH 6.5]) [µg/mL] | Dissolution levels after 30 min ([2]; FaSSIF [pH 6.5]) | dissolution behaviour in biorelevant intestinal milieu (FaSSIF) compared to crystalline entities of the free compound [2] | Dissolution levels after 15 min ([2]; FeSSIF [pH 5.0]) [µg/mL] | Dissolution levels after 30 min ([2]; FeSSIF [pH 5.0]) [µg/mL] | Dissolution levels after 15 min ([2]; SGF [pH 1.2]) [µg/mL] | Dissolution levels after 30 min ([2]; SGF [pH 1.2]) [µg/mL] | tendency to undergo hydrate formation upon exposure to elevated RH levels [1] | Compound | also measured
hygroscopic | > 22 % (w/w) | – | – | – | – | – | – | – | – | COc1ncc(C2=CCOCC2)c2sc(NC(=O)N3CC[C@@]4(CCCOC4)C3)nc12 [amorphous state, (S)-7-Oxa-2-aza-spiro[4,5]decane-2-carboxylic acid [7-(3,6-dihydro2H-pyran-4-yl)-4-methoxy-thiazolo[4,5-c]pyridin-2-yl]-amide] | humidity level at which tendencies for deliquescence are shown ([1]; 25° C. water vapour sorption): > 90 % RH
slightly hygroscopic | – | 317 | 492 µg/mL | improved dissolution behaviour | 651 | 899 | 206 | 292 | – | COc1ncc(C2=CCOCC2)c2sc(NC(=O)N3CC[C@@]4(CCCOC4)C3)nc12 [hemi fumaric acid co-crystal form A2, (S)-7-Oxa-2-aza-spiro[4,5]decane-2-carboxylic acid [7-(3,6-dihydro2H-pyran-4-yl)-4-methoxy-thiazolo[4,5-c]pyridin-2-yl]-amide] | water uptake levels (water vapour sorption) ([1]; relative humidity range 0-80% RH): ≤ 0.7 % (w/w)
Slightly hygroscopic | < 3 % (w/w) | 278 | 360 µg/mL | improved dissolution behaviour | 375 | 462 | 331 | 385 | no tendency to undergo hydrate formation | COc1ncc(C2=CCOCC2)c2sc(NC(=O)N3CC[C@@]4(CCCOC4)C3)nc12 [mono fumaric acid co-crystal form A1, (S)-7-Oxa-2-aza-spiro[4,5]decane-2-carboxylic acid [7-(3,6-dihydro2H-pyran-4-yl)-4-methoxy-thiazolo[4,5-c]pyridin-2-yl]-amide] | –
– | – | – | approx. 145 μg/mL | – | – | – | – | – | – | COc1ncc(C2=CCOCC2)c2sc(NC(=O)N3CC[C@@]4(CCCOC4)C3)nc12 [hemi tartaric acid co-crystal form NF2, (S)-7-Oxa-2-aza-spiro[4,5]decane-2-carboxylic acid [7-(3,6-dihydro2H-pyran-4-yl)-4-methoxy-thiazolo[4,5-c]pyridin-2-yl]-amide] | –
Not hygroscopic | – | – | – | – | – | – | – | – | no tendency to undergo hydrate formation | COc1ncc(C2=CCOCC2)c2sc(NC(=O)N3CC[C@@]4(CCCOC4)C3)nc12 [mono 3-hydroxybenzoic acid co-crystal form NF1] [(S)-7-Oxa-2-aza-spiro[4,5]decane-2-carboxylic acid [7-(3,6-dihydro2H-pyran-4-yl)-4-methoxy-thiazolo[4,5-c]pyridin-2-yl]-amide] | –
Slightly hygroscopic | – | – | – | – | – | – | – | – | no tendency to undergo hydrate formation | COc1ncc(C2=CCOCC2)c2sc(NC(=O)N3CC[C@@]4(CCCOC4)C3)nc12 [crystalline anhydrous form A1, (S)-7-Oxa-2-aza-spiro[4,5]decane-2-carboxylic acid [7-(3,6-dihydro2H-pyran-4-yl)-4-methoxy-thiazolo[4,5-c]pyridin-2-yl]-amide] | hygroscopicity classification according to Ph. Eur. criteria (section 5.11.) ([1]; 25° C. water vapour sorption, listed as A1 form): slightly hygroscopic; water uptake levels (water vapour sorption) ([1]; full relative humidity range 0-98% RH, listed as A1 form): < 1 % (w/w)
